From patent US20120058110A1, “Method for Predicting the Responsiveness to an Anti-TNF Alpha Antibody Treatment” (INSERM (INSTITUT NATIONAL DE LA SANTE ET DE LA RECHERCHE …, priority 2009, published 2012)
Entries after “also recorded” stand apart in the source; their conditions may differ.

Experiments:
human macrophages = experiment: sIL-15Rα secretion by human macrophages cultured with IFX, etanercept, GM-6001; type: cell-based; conditions: for sIL-15Rα secretion: human macrophages, 8 h; for effect on sIL-15Rα secretion by macrophages: versus macrophages cultured without the agent
Procedure: (§1) The quantification of sIL-15Rα and IL-15 was determined as previously described (Mortier et al. J Immunol 2004; 173:1681-8). Sandwich RIAs were set up in which the goat anti-human IL-15Rα Ab AF247 or the mouse anti-human IL-15 Mab247 (R&D) was used as capture Ab and radio-iodinated anti-human IL-15Rα Ab M161 (GenMab; Copenhagen, Denmark) or radio-iodinated mouse anti human IL-15 BE-29 (Diaclone: Besançon, France) was used as tracer. A purified recombinant sIL-15Rα protein (Bernard et al. J Biol Chem 2004; 279:24313-22) and recombinant IL-15 (Peprotech) were used as standards. Capture Abs were coated (5 μg/mL; 50 μL/well) to high-adsorption Nunc maxisorp plates (Fisher Bioblock Scientific, Illkirch, France). Wells were saturated with PBS-BSA 0.5% for 15 min and samples (50 μL/well) were incubated for 1 h at 4° C. The M161 or BE-29 mAbs were iodinated using the iodogen method and then added (1 nM, 50 μL/well) for 1 h at 4° C. Supernatants of each well were collected and the wells washed twice with PBS. The radioactivity associated to the wells (bound fraction) and contained in the supernatants and washes (unbound fraction) were determined.
Human monocytes were isolated from blood samples of healthy donors. PBMC were collected after Ficoll-Hypaque density centrifugation, resuspended at 7×10^6 cells/mL and allowed to adhere in culture flasks (RPMI 1640 supplemented with L-glutamine, streptomycin, penicillin, 10% FCS) for 1 h 30 at 37° C. Nonadherent cells were removed and adherent cells were washed five times with PBS. Monocytes were further differentiated for 5 days in the same medium supplemented with GM-CSF (100 ng/mL). […] After incubation, supernatants were obtained by centrifugation.

sIL-15Rα = experiment: Serum sIL-15Rα of CD patients before/after IFX (RIA); type: in vivo, human; conditions: responder patients
Procedure: as §1

TNFα = experiment: Serum TNFα of CD patients before/after IFX (WEHI 164 XTT bio-assay); type: in vivo, human
Procedure: TNFα concentrations were measured in the serum of 43 patients (33 responder patients, 10 non-responders). Quantification TNFα was performed by the XTT method using the murine cell line WEHI 164 (ATCC N^o CRL1751) (Espevik et al. J Immunol Methods 1986; 95:99-105). Cells were seeded in 96-well plates (3×10^4 cells/50 μL/well) and grown at 37° C. in RPMI 1640 supplemented with […] of glutamine, 10% heat-inactivated FCS, LiCl and actinomycin D. Sera from CD patients and healthy volunteers were serially diluted, added to wells and a purified recombinant TNFα (R&D) was used as standard. After 20 h of culture, 50 μL/well of XTT and electron coupling reagent was added and cell survival was determined by measuring the optical density at 450 nm. The sensitivity of the assay was 0.10 pg/mL. The TNFα upper normal limit was calculated by the mean+2 SD of the values obtained in the healthy volunteers.

[1] = tested on: soluble and cell-surface TNFα; conditions: cited from earlier work
Sequence of soluble and cell-surface TNFα (P01375 77-233 limits assumed): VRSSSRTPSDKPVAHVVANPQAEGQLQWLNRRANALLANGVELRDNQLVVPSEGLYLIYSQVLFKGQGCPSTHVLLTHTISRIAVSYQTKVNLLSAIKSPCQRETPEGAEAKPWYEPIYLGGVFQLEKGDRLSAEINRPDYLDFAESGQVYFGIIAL

patients with active CD = experiment: Clinical response and CDAI in active CD patients treated with IFX; type: in vivo, human
Procedure: Clinical response for patients treated for perineal disease was assessed by the disappearance of draining fistulas. Blood samples were taken before each infusion and were centrifuged and stored at −80° C. Blood samples were also collected in 37 healthy volunteers. Forty patients with active CD were included in the study (12 males, 28 females, mean age 37.8 years). According to the Montreal classification, the disease was predominantly located into the colon (L2) or the ileocolon (L3) in 62.5 and 32.5% respectively and the disease was mostly non-stricturing and non-penetrating (B1). […] Six patients were treated by a combination of steroids and immunosuppressors, 3 patients received only steroids, 30 only immunosuppressors. Treatments were not modified except steroids which were always stopped between the first and the third infusion. There were no clinical and demographic differences between patients who experienced a response or not to IFX.

IL-15 = experiment: Serum IL-15 of CD patients before/after IFX (RIA); type: in vivo, human
Procedure: as §1
The upper normal value of IL-15 (6.1 pM) was calculated by the mean+2 SD of the values measured in healthy volunteers.

CD = conditions: in vivo; cited from earlier work
[2] = experiment with GM-6001 0.2 nM, IFX 0.01 μg/mL, control 1.4±0.9 pM
[3] = 0.01 μg/mL IFX or etanercept, cells without IFX 2.0±0.6 pM
[4] = according to TNF and CRP levels and CDAI, 40 patients, 5 treated twice (45 courses)

Row | Molecule | inducing effect of IFX on sIL-15Rα secretion (human macrophages; GM-6001 added with IFX) | basal sIL-15Rα secretion (human macrophages; GM-6001 alone versus control cells) | sIL-15Rα secretion (human macrophages; [2]) [pM] | increase of the proportion of patients with detectable sIL-15Rα after IFX (sIL-15Rα) [%] | sIL-15Rα secretion (human macrophages; [3]) [pM] | effect on sIL-15Rα secretion by macrophages (human macrophages) | non-responder patients in whom TNF remained above the control value (TNFα; week 6, 9/10) [%] | responder patients with individual TNFα values dropping to control ranges (TNFα; week 6, 20/33) [%] | responder patients in whom TNFα decreased (TNFα; week 6, 31/33) [%] | binding to soluble and cell-surface TNFα [1] | patients classified as non-responders to IFX (patients with active CD; [4]) [patients] | patients classified as responders to IFX (patients with active CD; [4]) [patients] | patients with mucosal healing (patients with active CD; three biopsied CD patients, all with clinical responses) | median IL-15 levels after IFX (IL-15; non-responder patients, serum) | patients in whom IL-15 was undetectable after IFX (IL-15; responder patients, 15/35, before IFX 26% (9/35)) [%] | patients in whom IL-15 dropped below the control value (IL-15; responder patients, 29/35, after IFX) [%] | efficacy in CD (CD)
1 | CNC(=O)[C@H](Cc1c[nH]c2ccccc12)NC(=O)[C@@H](CC(=O)NO)CC(C)C [GM-6001] | completely inhibited | not modified; also recorded: did not affect | 4.5 ± 3.0 | – | – | – | – | – | – | – | – | – | – | – | – | – | –
2 | IFX: anti-TNFα monoclonal antibody, a mouse-human chimeric whole antibody (Remicade; Centocor) | – | – | 22.4 ± 2.0 | 38 | 18.0 ± 1.2 | increased significantly; also recorded: induced; also recorded: markedly increased | 90 | 61 | 94 | high affinity and specificity | 10 | 35 | two | not modified | 43 | 83 | –
3 | etanercept | – | – | – | – | 6.3 ± 0.9 | did not significantly affect; also recorded: did not induce | – | – | – | – | – | – | – | – | – | – | inefficient in CD; also recorded: poor efficacy
